Results on four molecules are retold here after US20210061917A1, “METHODS AND COMPOSITIONS FOR TREATING VITILIGO” (INSERM (Institut National de la Santé et de la Recherche …, priority 2018, published 2021).

Format in all cases: cell-based
Experiment [1] deals with T1, CXCR3 (Homo sapiens, UniProt P49682).
T1 sequence (P49682 1-415 isoform P49682-2): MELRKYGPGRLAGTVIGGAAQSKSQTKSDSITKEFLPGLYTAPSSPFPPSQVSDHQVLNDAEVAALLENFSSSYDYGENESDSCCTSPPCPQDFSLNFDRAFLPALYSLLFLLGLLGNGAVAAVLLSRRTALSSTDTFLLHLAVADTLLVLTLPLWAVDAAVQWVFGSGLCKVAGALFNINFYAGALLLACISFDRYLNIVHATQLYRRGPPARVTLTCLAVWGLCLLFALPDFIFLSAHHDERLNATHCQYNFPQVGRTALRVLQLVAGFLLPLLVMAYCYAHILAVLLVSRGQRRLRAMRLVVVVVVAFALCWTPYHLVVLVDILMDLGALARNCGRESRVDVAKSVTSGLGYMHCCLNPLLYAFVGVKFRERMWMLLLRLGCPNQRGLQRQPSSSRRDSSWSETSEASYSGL
Nature of the experiment: CXCL10-induced death of vitiligo melanocytes in co-culture with autologous CD3+ T cells, IncuCyte. From the text:
(A) CXCL10-induced death of vitiligo melanocytes in presence or absence of patients own autologous T cells. […] The next day, media was replaced and 3 days later patient's own CD3+ T cell were sorted and added to the melanocytes (n=3) prior to initiation of IncuCyte.

For experiment [2], the target named is T1, CXCR3. Put plainly: CXCL10-induced melanocyte death, IncuCyte live cell imaging, with CXCR3 antagonist, blocking antibody or siCXCR3. To be noted: IFNγ-pretreated (50 ng/ml, 48 hrs) vitiligo melanocytes; AS612568 0.02, 0.2, 2 μM; FIG. 2A.
Experimental: (A) Effect of CXCL10 (5, 20, 100 pg/ml) on cell viability in unstimulated or IFNγ stimulated (50 ng/ml for 48 hrs) melanocytes from vitiligo patients, in presence or absence of CXCR3 antagonist AS612568 (0.02 μM, 0.2 μM or 2 μM) (n=5-8). Cell viability was monitored using lncuCyte® live cell fluorescence imaging system. (B) Effect of siCXCR3 or siC on CXCL10 (100 pg/ml)-induced death of healthy (n=4-8) and vitiligo (n=4) melanocytes. Melanocytes were tracked with CellTracker™ Red CMPTX dye and dead cells tracked with IncuCyte® Cytotox Green reagent. […] Cell viability was monitored using IncuCyte® live cell fluorescence imaging system. […] Results are expressed as mean with SEM, *P<0.05, **P<0.01 and ***P<0.001.
Melanocytes were plated in 96-well plates (10,000/well) and stimulated with 50 ng/ml IFNγ for 48 hrs prior to transfection with 50 or 80 nM siCXCR3 or siC (SmartPool scramble sequence siRNA, Dharmacon, France) or with 80 nM custom-designed siCXCR3B or siC (ThermoFisher, France) using Lipofectamine® RNAiMAX Reagent (Invitrogen, France) in optiMEM medium (Invitrogen). […] Finally, Incucyte® green Cytotox Reagent (100 nM, Essen Bioscience, Michigan, USA) was added to all wells and melanocyte death monitored in real-time using IncuCyte® Zoom live-cell imaging system (Essen Biosciences) which was inside a 37° C. humidified CO2 incubator scanning the plate every 2 hrs. […]
The next experiment relates to human melanocytes. Nature of the experiment: Melanocyte death after chemokine stimulation, IncuCyte live cell imaging. The following applies: for melanocyte death: chemokine 100 pg/ml, healthy and vitiligo melanocytes, 24 hrs, FIG. 2C.

Experimental for human melanocytes: (A) Effect of CXCL10 (5, 20, 100 pg/ml) on cell viability in unstimulated or IFNγ stimulated (50 ng/ml for 48 hrs) melanocytes from vitiligo patients, in presence or absence of CXCR3 antagonist AS612568 (0.02 μM, 0.2 μM or 2 μM) (n=5-8). Cell viability was monitored using lncuCyte® live cell fluorescence imaging system. (B) Effect of siCXCR3 or siC on CXCL10 (100 pg/ml)-induced death of healthy (n=4-8) and vitiligo (n=4) melanocytes. Melanocytes were tracked with CellTracker™ Red CMPTX dye and dead cells tracked with IncuCyte® Cytotox Green reagent. (C) Healthy and vitiligo melanocytes (n=6-12) were transfected with custom-designed siCXCR3B or siC and melanocyte death shown at 24 hrs following CXCL10, CXCL9 or CXCL11 (100 pg/ml) stimulation. (D) Effect of CXCL10 (100 pg/ml) on cell viability in untreated or IFNγ pretreated (50 ng/ml for 48 hrs) melanocytes from vitiligo patients, in presence or absence of CXCR3 blocking antibody (MAB-160, R&D Systems, USA at 1 or 10 μg/ml) (n=3). Cell viability was monitored using IncuCyte® live cell fluorescence imaging system. Melanocytes were tracked with CellTracker™ Red CMPTX dye and dead cells tracked with IncuCyte® Cytotox Green reagent. Results are expressed as mean with SEM, *P<0.05, **P<0.01 and ***P<0.001.
Melanocytes were plated in 96-well plates (10,000/well) and stimulated with 50 ng/ml IFNγ for 48 hrs prior to transfection with 50 or 80 nM siCXCR3 or siC (SmartPool scramble sequence siRNA, Dharmacon, France) or with 80 nM custom-designed siCXCR3B or siC (ThermoFisher, France) using Lipofectamine® RNAiMAX Reagent (Invitrogen, France) in optiMEM medium (Invitrogen). […] Finally, Incucyte® green Cytotox Reagent (100 nM, Essen Bioscience, Michigan, USA) was added to all wells and melanocyte death monitored in real-time using IncuCyte® Zoom live-cell imaging system (Essen Biosciences) which was inside a 37° C. humidified CO2 incubator scanning the plate every 2 hrs. Multiple images were collected per well and quantification of dead melanocytes (yellow co-localised cells) was analysed using the integrated Zoom® software. […]

As to `N#Cc1ccc(S(=O)(=O)N(Cc2ccc(-c3nnn[nH]3)c(F)c2)Cc2ccccc2F)cc1` [AS612568, 4-cyano-N-(3-fluoro-4-(1H-tetrazol-5-yl)benzyl)-N-(2-fluorobenzyl)benzenesulfonamide], the “augmentation of T cell number” value on CXCR3 [1] (AS612568 2 μM, CD3+ T cells in IncuCyte co-culture, P=0.04, FIG. 3B) is on record as “prevented”. For the same molecule, the “potentiating effect of T cells on CXCL10-induced melanocyte death” value on CXCR3 [1] (AS612568 2 μM, IFNγ-pretreated vitiligo melanocytes plus autologous CD3+ T cells, P=0.008, FIG. 3A) is listed as “prevented”. Moreover, the T cell proliferation result at CXCR3 [1] (AS612568, T cells co-cultured with IFNγ-primed, CXCL10-stimulated melanocytes, data not shown) is reported as “prevented”. In addition, at CXCR3 [2], the “melanocyte death induced by CXCL10” value is listed as “inhibited melanocyte death induced by CXCL10 in a dose-dependent manner”.

On to “CXCL10: recombinant human chemokine (PeproTech), CXCR3 ligand used as stimulus”, for which the “melanocyte death compared to non-stimulated melanocytes” value with human melanocytes (vitiligo melanocytes, IFNγ pre-treated, CXCL10 5, 20, 100 pg/ml, dose-dependent, P=0.006, FIG. 2A) is “significantly increased melanocyte death”.

B1: CXCL11: recombinant human chemokine (PeproTech), CXCR3 ligand used as stimulus (protein, UniProt O14625 22-94, looked up)
C-X-C motif chemokine 11: FPMFKRGRCLCIGPGVKAVKVADIEKASIMYPSNNCDKIEVIITLKENKGQRCLNPKSKQARLIIKKVERKNF
Turning to B1, the melanocyte death result with human melanocytes is “induced a significant melanocyte death”.

B2: CXCL9: recombinant human chemokine (PeproTech), CXCR3 ligand used as stimulus (protein, UniProt Q07325 23-125, looked up)
C-X-C motif chemokine 9: TPVVRKGRCSCISTNQGTIHLQSLKDLKQFAPSPSCEKIEIIATLKNGVQTCLNPDSADVKELIKKWEKQVSQKKKQKNGKKHQKKKVLKVRKSQRSRQKKTT
Regarding B2, the melanocyte death entry with human melanocytes is given as “induced a significant melanocyte death”.
